Measurements from patent publication US6680311B1, “Cryptophycin compounds” (Eli Lilly and Company, priority 1996, dated 2004).
Where a name gives a salt, the structure may show the parent alone.

Experiments:
Type in all cases: physicochemical
[1] = Stability in parenteral formulation; conditions: formulation 6 of Table 4, up to 3 weeks, preliminary
[2] = Aqueous solubility and stability at pH 4-8
Description: A comparison of stability characteristics between 1 and 12 in aqueous Ph ranging from 4-8 was determined at room temperature for 6 hours.

[3] = Solubility in excipient / parenteral vehicles; conditions: Propylene Glycol 15 % v/v, Polyethylele Glycol 3000 20 % v/v, volume adjusted 0.05 M acetate buffer

SMILES: COc1ccc(C[C@H]2NC(=O)/C=C/C[C@@H]([C@H](C)[C@@H](OC(=O)CN)[C@@H](Cl)c3ccccc3)OC(=O)[C@H](CC(C)C)OC(=O)C(C)(C)CNC2=O)cc1Cl [Compound 12, Cryptophycin 55 Glycinate Hydrochloride Salt]
- stability in formulation 6 [1]: acceptable stability
- course of aqueous solubility over the pH range studied ([2]; aqueous pH 4-8, room temperature, 6 hours): remained substantially steady
- stability in an aqueous environment ([2]; physiological pH range, over longer periods of time): better stability
- Comparative solubility, vehicle 2 [3]: >2.0 mg/mL
